Data from the OPERA property sets (Mansouri et al. 2018).

In order of falling logP:
1. CCCCc1nc(C#N)c(C#N)nc1Cl  2.89
2. CCOc1cncc(OCC)n1  2.55
3. Cc1nccnc1OC(C)C  2.24
4. CCCCc1nccnc1C  2.1
5. COc1cncc(N(C)C)n1  1.99
6. CCOc1cnc(Cl)cn1  1.99
7. CCOc1cncc(OC)n1  1.98
8. CCc1ncc(C)nc1CC  1.95
9. COC(=O)c1ccc(Br)o1  1.84
10. CSc1nccnc1C  1.81
11. CCc1nc(C#N)c(C#N)nc1Cl  1.79
12. CN(C)c1cnc(Cl)cn1  1.7
13. COc1cnc(N(C)C)cn1  1.65
14. Clc1cnc(Cl)cn1  1.58
15. COc1cncc(OC)n1  1.58
16. Cc1cncc(N(C)C)n1  1.57
17. CCCc1nccnc1C  1.57
18. COc1cnc(Cl)cn1  1.52
19. CCc1nccnc1CC  1.51
20. Cc1cnc(C)c(Cl)n1  1.5
21. Cc1nc(C#N)c(C#N)nc1Cl  1.29
22. COc1cncc(C)n1  1.29
23. Cc1nc(C)c(C)nc1C  1.28
24. COc1nccnc1C  1.24
25. CCOC(=O)c1cncc(N(C)C)n1  1.24
26. CCOC(=O)c1cncc(OC)n1  1.2
27. COc1cnc(OC)cn1  1.14
28. CN(C)c1cncc(C#N)n1  1.12
29. Cc1cnc(Cl)cn1  1.08
30. CCc1nccnc1C  1.07
31. COc1cncc(C#N)n1  0.95
32. Cc1cnc(C)c(C)n1  0.95
33. COC(=O)c1cncc(N(C)C)n1  0.9
34. COc1ccnc(C#N)n1  0.86
35. COc1cncc(NC(C)=O)n1  0.82
36. COc1cncc(N)n1  0.73
37. COC(=O)c1cncc(OC)n1  0.69
38. CCOC(=O)c1nccnc1C(=O)OCC  0.65
39. COc1cnc(N)cn1  0.63
40. CCOc1cncc(C(N)=O)n1  0.61
41. CCOC(=O)c1cnc(C)cn1  0.61
42. CC(=O)Nc1cnc(Cl)cn1  0.56
43. Cc1cncc(C)n1  0.54
44. Cc1nccnc1C  0.54
45. CCOC(=O)c1cncc(C)n1  0.51
46. Cc1cncc(C#N)n1  0.44
47. CC(=O)Nc1cncc(C)n1  0.38
48. N#Cc1nccnc1C#N  0.38
49. CN(C)c1cncc(C(N)=O)n1  0.38
50. Cc1cncc(N)n1  0.35
51. Cc1cnc(C#N)cn1  0.26
52. COC(=O)c1cnc(C)cn1  0.17
53. COc1cncc(C(N)=O)n1  0.13
54. COC(=O)c1cncc(C)n1  0.1
55. COC(=O)c1nccnc1C(=O)OC  -0.02
56. Cc1cncc(C(N)=O)n1  -0.13
57. Cc1cnc(C(N)=O)cn1  -0.25
58. Nc1cncc(N)n1  -0.45
